Reference: publication PMC11189555, “Aryl amino acetamides prevent Plasmodium falciparum ring development via targeting the lipid-transfer protein PfSTART1” (Nature Communications, 2024)

Test system: SLI-N330K parasites
Experiment: Growth inhibition assay (72 h, LDH activity)
Format: cell-based, Plasmodium falciparum
Procedure: Parasite growth assays with inhibitory compounds were performed as per[11] and are fully described in the Supplementary Information.
Molecular biology and transfection of P. falciparum: Selection Linked Integration […]
To introduce the PfSTART1 mutations, the second half of the coding sequence of pfstart1 (PF3D7_0104200), was recodonised without introns to the bias of Saccharomyces cerevisiae containing either WT, N309K or N330K mutations, and synthesised as gBlock fragments (Integrated DNA Technologies). The first 819 bp of the 5′ native sequence of pfstart1 was amplified from gDNA, to form the 5’ homology block (5’ HB). The 3′ recodonised gBlock fragment comprising of the last 552 bp of either the WT, N309K or N330K pfstart1 to form the ‘recodon’ block (primers listed in Table S2). The 5’ HB and recodon products were sewn together by overlapping PCR to reconstitute the full coding sequence of pfstart1. These blocks (WT/N309K/N330K) were digested with BglII/PstI, and inserted into the parasite vector p-HA-2A-Neo-glmS
1. This plasmid contains an in -frame haemagglutinin (HA) epitope for protein identification and a P2A peptide (2A) to skip continuous peptide bond synthesis of a downstream neomycin resistance gene ( NeoR).
Parasites containing the transfected DNA were selected using 2.5 nM WR99210 (Jacobus). To select for parasites in which single crossover integration had occurred into the pfstart1 locus, parasites were treated with 400 μg/mL G418 (geniticin, Sigma Aldrich) for 14 days: only parasites that have integrated the construct into their genome expressed the neomycin resistance gene together with the PfSTART1 protein.
Parasite lines were cloned using limiting dilution. These clones were then tested on Western Blot (for correct HA-tagging and protein size), and correct integration and sequence were tested by PCR analysis: PCR on the gDNA was conducted using the primers START_5’UTR.F and START_Seq.R (Table S2). […]
Growth inhibition assays. Synchronised ring-stage parasites (0.3-0.6% parasitemia, 2% haematocrit) were grown for 72 h in a serial-dilution of the compound under […]
and compound 4. Note that M-833 was first purchased from MolPort (MolPort -002-267-916) then made in-house at WEHI: the differences observed in EC50s across experiments are attributed to the different batches of M -833. For some experiments, 0, 0.25 or 2.5 mM of glucosamine (GlcN) was also added. Experiments were set up in technical duplicates or triplicates. Following a freeze -thaw cycle, lactate dehydrogenase (LDH) activity was assessed as an indicator of parasite growt h 5. 30 μL of parasite culture was incubated for 30 min in the dark with 75 μL Malstat mixture (0.1 M Tris pH 9.0, 20 g/L lactic acid, pH 7.5, 0.2% Triton-X100, 0.5 g/L acetylpyridine adenine dinucleotide (APAD, Sigma), 200 μg/mL nitroblue tetrazolium (NBT; Sigma), 1 μg/mL phenozine ethosulfate (PES; Sigma)). Absorbance was then measured at 650 nm, transformed using the formula below, plotted against the logarithm of the concentrations, and a non-linear regression (log(inhibitor) vs. response, variable slope) was calculated using GraphPad Prism to assess the half-inhibitory […]
Growth inhibition % = (1 − average(sample)− average(uRBC)) ∗ 100 […]
The DMSO samples were also used to assess growth of parasite in the presence of 0.25 and 2.5 mM GlcN (normalised by DMSO in 0 mM GlcN).
Egress, invasion & recovery assay. To measure egress, invasion and follow up recovery in the presence of different compounds, we adapted the method developed in6, using Hyp1-Nluc parasites7. These parasites episomally express the exported PEXEL protein Hyp1 (PF3D7_0113300) tagged with a NanoLuc luciferase (NLuc) and were selected with 2.5 nM WR99210 (Jacobus). Highly synchronised schizonts were obtained using ML10 (LifeArc) and sorbitol synchronisation, and Percoll-purified (the culture was gently layered over 67% Percoll (Cytiva) in RPMI, and centrifuged for 15 min at 1500 g and the schizont layer was collected and washed). […]

Cc1cc(Cl)c(S(=O)(=O)N2CCCC2)cc1OCC(=O)NC1CCCCC1 [M-833]
sample/DMSO (0.00152416 uM M-833, START(N330K), 0 mM GlcN, biological replicate 2): 1.655
sample/DMSO (0.00152416 uM M-833, START(N330K), 0.25 mM GlcN, biological replicate 1): -2.909
sample/DMSO (0.00152416 uM M-833, START(N330K), 0.25 mM GlcN, biological replicate 2): 8.825
sample/DMSO (0.00152416 uM M-833, START(N330K), 2.5 mM GlcN, biological replicate 1): 11.1758
sample/DMSO (0.00457247 uM M-833, START(N330K), 0 mM GlcN, biological replicate 1): 3.2212
sample/DMSO (0.00457247 uM M-833, START(N330K), 0 mM GlcN, biological replicate 2): 9.585
sample/DMSO (0.00457247 uM M-833, START(N330K), 0 mM GlcN, biological replicate 3): 4.929
sample/DMSO (0.00457247 uM M-833, START(N330K), 0 mM GlcN, biological replicate 4): -5.471
sample/DMSO (0.00457247 uM M-833, START(N330K), 0.25 mM GlcN, biological replicate 1): 0.8993
sample/DMSO (0.00457247 uM M-833, START(N330K), 0.25 mM GlcN, biological replicate 2): 9.092
sample/DMSO (0.00457247 uM M-833, START(N330K), 0.25 mM GlcN, biological replicate 3): -0.2009
sample/DMSO (0.00457247 uM M-833, START(N330K), 0.25 mM GlcN, biological replicate 4): -11.7886
sample/DMSO (0.00457247 uM M-833, START(N330K), 2.5 mM GlcN, biological replicate 1): 14.0279
sample/DMSO (0.00457247 uM M-833, START(N330K), 2.5 mM GlcN, biological replicate 2): 17.9639
sample/DMSO (0.00457247 uM M-833, START(N330K), 2.5 mM GlcN, biological replicate 3): -5.165
sample/DMSO (0.00457247 uM M-833, START(N330K), 2.5 mM GlcN, biological replicate 4): -8.571
sample/DMSO (0.0137174 uM M-833, START(N330K), 0 mM GlcN, biological replicate 1): 7.141
sample/DMSO (0.0137174 uM M-833, START(N330K), 0 mM GlcN, biological replicate 2): 7.124
sample/DMSO (0.0137174 uM M-833, START(N330K), 0 mM GlcN, biological replicate 3): -3.262
sample/DMSO (0.0137174 uM M-833, START(N330K), 0 mM GlcN, biological replicate 4): 6.3139
sample/DMSO (0.0137174 uM M-833, START(N330K), 0.25 mM GlcN, biological replicate 1): 1.512
sample/DMSO (0.0137174 uM M-833, START(N330K), 0.25 mM GlcN, biological replicate 2): 8.325
sample/DMSO (0.0137174 uM M-833, START(N330K), 0.25 mM GlcN, biological replicate 3): 2.478
sample/DMSO (0.0137174 uM M-833, START(N330K), 0.25 mM GlcN, biological replicate 4): 0
sample/DMSO (0.0137174 uM M-833, START(N330K), 2.5 mM GlcN, biological replicate 1): 15.7451
sample/DMSO (0.0137174 uM M-833, START(N330K), 2.5 mM GlcN, biological replicate 2): 11.3968
sample/DMSO (0.0137174 uM M-833, START(N330K), 2.5 mM GlcN, biological replicate 3): -4.719
sample/DMSO (0.0137174 uM M-833, START(N330K), 2.5 mM GlcN, biological replicate 4): -3.372
sample/DMSO (0.0411523 uM M-833, START(N330K), 0 mM GlcN, biological replicate 1): 8.934
sample/DMSO (0.0411523 uM M-833, START(N330K), 0 mM GlcN, biological replicate 2): 2.634
sample/DMSO (0.0411523 uM M-833, START(N330K), 0 mM GlcN, biological replicate 3): 5.053
sample/DMSO (0.0411523 uM M-833, START(N330K), 0 mM GlcN, biological replicate 4): -9.704
sample/DMSO (0.0411523 uM M-833, START(N330K), 0.25 mM GlcN, biological replicate 1): 4.325
sample/DMSO (0.0411523 uM M-833, START(N330K), 0.25 mM GlcN, biological replicate 2): -8.575
sample/DMSO (0.0411523 uM M-833, START(N330K), 0.25 mM GlcN, biological replicate 3): -3.728
sample/DMSO (0.0411523 uM M-833, START(N330K), 0.25 mM GlcN, biological replicate 4): -6.829
sample/DMSO (0.0411523 uM M-833, START(N330K), 2.5 mM GlcN, biological replicate 1): 19.2666
sample/DMSO (0.0411523 uM M-833, START(N330K), 2.5 mM GlcN, biological replicate 2): 13.1689
sample/DMSO (0.0411523 uM M-833, START(N330K), 2.5 mM GlcN, biological replicate 3): 1.449
sample/DMSO (0.0411523 uM M-833, START(N330K), 2.5 mM GlcN, biological replicate 4): -4.731
sample/DMSO (0.123457 uM M-833, START(N330K), 0 mM GlcN, biological replicate 1): 11.901
sample/DMSO (0.123457 uM M-833, START(N330K), 0 mM GlcN, biological replicate 2): 1.439
sample/DMSO (0.123457 uM M-833, START(N330K), 0 mM GlcN, biological replicate 3): 5.443
sample/DMSO (0.123457 uM M-833, START(N330K), 0 mM GlcN, biological replicate 4): 0.2691
sample/DMSO (0.123457 uM M-833, START(N330K), 0.25 mM GlcN, biological replicate 1): 10.3138
sample/DMSO (0.123457 uM M-833, START(N330K), 0.25 mM GlcN, biological replicate 2): 8.225
sample/DMSO (0.123457 uM M-833, START(N330K), 0.25 mM GlcN, biological replicate 3): 5.9375
